Reference: patent US20100159012A1, “Conjugates of Therapeutically Active Compounds” (priority 2005, published 2010)

Assays:
[1] = tested on: Staphylococcus Aureus and E. Coli; experiment: Antimicrobial activity, filter paper disc on seeded agar plate; format: cell-based; conditions: 24 hours at 37° C.; 6 mm filter paper; equivalent amounts of drug
Protocol: The antimicrobial activity of these conjugates was determined as follows: Saline solutions of equivalent amounts of the drug in free form or the imine AG conjugate were absorbed onto a circular filter paper (6 mm in diameter) and placed on a seeded agar plate with Staphylococcus Aureus (10^5/ml) and E. Coli incubated for 24 hours at 37° C.

Sheep erythrocytes = experiment: Hemolysis evaluated visually after 1 h incubation at 37° C.; format: cell-based; conditions: visual
RAW 264.7 cells = experiment: Cytotoxicity by 3H-thymidine incorporation in murine RAW 264.7 cells
Protocol: (§1) The final aldehyde concentrations in the test were 0.01-34 μmol/mL.
(§2) The cytotoxicity of dextran derivatives was evaluated in murine RAW 264.7 cells, an internationally recognized cell line for examination of drug effects.
(§3) Growth inhibition was estimated by the ^3H-thymidine incorporation method. Cells were cultured in flat-bottom flasks at 37° C. Before each experiment the cells were washed and removed by trypsin treatment or scraped from the flask bottom, and an appropriate volume was centrifuged, resuspended, and diluted in growth medium to the desired cell concentration. […] By use of an automated dispenser, 200 μL of cell suspension was added to each well of a microtiter plate. After incubation overnight, the appropriate drug concentration, in triplicate, was added to test wells. Drug-free medium was used as control. ^3H-Thymidine (0.5 μCi) in 20 μL of medium was added the next day, and the plate was harvested and read by liquid scintillation counter (LKB, Finland) after an additional 24 h. The percent growth inhibition of the cells by the drug tested was calculated as [100−(count with drug/control count)×100].
(§4) Dextran with 50% oxidation was used as a positive toxicity control.
(§5) Drug effect and the IC50 were defined as previously described.

[2] = tested on: Leishmania donovani IS promastigotes; experiment: In vitro activity against Leishmania donovani promastigotes (3H-thymidine incorporation); format: cell-based
Protocol: The in vitro antiparasitic activity was evaluated against Leishmania donovani IS promastigotes. This strain, isolated from a patient in Sudan, was received from the International Reference Center of the Kuvin Center for Infectious Diseases in the Hebrew University of Jerusalem.
Serial dilutions of the tested agents were prepared in RPMI 1640 growth medium. The final AmB concentration in the test ranged from 0.2 to 6 μg/mL. Wells containing drug-free medium served as control. […] Briefly, 96-well plates were seeded with 60,000 promastigotes/well in 200 μL of medium, and test solutions were added 3 h later. After 24 h of incubation, 0.5 μCi/well ^3H-thymidine (in 10% FCS medium) was added, and the cultures were harvested after an additional 24 h. During the experiment the cells were incubated at 25° C. in air. The drug effect and the IC50 of the conjugates were estimated as described before (Example 7).

[3] = In vitro release of conjugated drug into solution/buffer; format: physicochemical; conditions: after 12 hours in buffer at pH7.4 at 37° C.
Protocol: About 10% of the conjugated drug was released after 12 hours in a buffer at pH7.4 at 37° C.

[4] = tested on: RAW 264.7 cells (growth, thymidine incorporation); experiment: Cytotoxicity by 3H-thymidine incorporation in murine RAW 264.7 cells; conditions: mouse, RAW 264.7 cells
Protocol: as §1, §2, §3, §4, §5

gentamicin
inhibition zone [1]: > 20 mm

C[C@@H]1[C@H](O)[C@@H](C)/C=C/C=C/C=C/C=C/C=C/C=C/C=C/[C@H](O[C@@H]2O[C@H](C)[C@@H](O)[C@H](N)[C@@H]2O)C[C@@H]2O[C@](O)(C[C@@H](O)C[C@@H](O)[C@H](O)CC[C@@H](O)C[C@@H](O)CC(=O)O[C@H]1C)C[C@H](O)[C@H]2C(=O)O [Free AmB, Amphotericin B]
Hemolysis (Sheep erythrocytes): 16 μgAmB/ml
toxicity to cells (RAW 264.7 cells; AmB and dextran-AmB conjugates, equivalent AmB amounts): extremely toxic
Toxicity IC50 (RAW 264.7 cells; murine RAW 264.7 cell line, 3H-thymidine incorporation): 9 μgAmB/ml
toxicity/activity to parasites ([2]; AmB and dextran-AmB conjugates): extremely toxic
Antiparasitic activity IC50 ([2]; Leishmania donovani, 3H-thymidine incorporation): 0.05 μgAmB/ml

Somatostatin-Arabinogalactan Ethanolamine Conjugate: somatostatin conjugated to 32% oxidized AG, reacted with excess ethanolamine
conjugated drug released [3]: About 10%

O=CCCCC=O [Glutaraldehyde]
IC50 at 48 h [4]: < 0.15 µg/mL

Native Dextran
IC50 (in vitro cytotoxicity of modified dextran) (RAW 264.7 cells): >5000 µg/mL
